Source: patent US10022453B2 (BAYER PHARMA AKTIENGESELLSCHAFT, priority 2013, dated 2018)

How the values were obtained:
NCI-H292 = assay: Cytotoxic effects, MTT assay; format: cell-based; settings: Homo sapiens, 72 h incubation
Description: The cells are cultivated by a standard method, as indicated in the […] (ATCC) for the respective cell lines.
At the end of the selected incubation time, the MTT reagent is incubated with the cells for 4 h, followed by lysis of the cells overnight by addition of the detergent. […] The proliferation of cells which were not treated with test substance but were otherwise identically treated was defined as the 100% figure.

[1] = Cell permeability, flux assay using Caco-2 cells; settings: human, Caco-2
[2] = target: T1, human kinesin spindle protein KSP/Eg5 (Homo sapiens, UniProt P52732); assay: Inhibition of the kinesin spindle protein KSP/Eg5 (ATPase, malachite green); format: biochemical; settings: 10 nM KSP motor domain, 500 μM ATP, 2 h RT
T1 construct: The motor domain of the human kinesin spindle protein KSP/Eg5; purchased tebu-bio/Cytoskeleton Inc 027EG01-XL
T1 sequence (P52732 18-359 limits assumed): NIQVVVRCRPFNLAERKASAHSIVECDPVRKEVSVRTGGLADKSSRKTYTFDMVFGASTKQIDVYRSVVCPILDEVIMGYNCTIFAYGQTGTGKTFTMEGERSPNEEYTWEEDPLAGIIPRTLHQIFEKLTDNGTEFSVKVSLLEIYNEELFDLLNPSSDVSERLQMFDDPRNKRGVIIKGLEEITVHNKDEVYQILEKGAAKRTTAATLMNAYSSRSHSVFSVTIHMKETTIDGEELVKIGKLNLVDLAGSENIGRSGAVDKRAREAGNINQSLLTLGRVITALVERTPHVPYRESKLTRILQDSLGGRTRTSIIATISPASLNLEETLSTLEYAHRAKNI
In short: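 KSP/Eg5 motor domain (10 nM) preincubated 5 min at RT with 50 μg/ml taxol-stabilized bovine or porcine microtubules in 15 mM PIPES pH 6.8, 5 mM MgCl2, 10 mM DTT. IC50 = mean of three experiments.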

NCI-H292 tumour model = assay: Anti-EGFR ADCs in the NCI-H292 tumour model on single treatment; format: in vivo, female NMRI-nude mice; settings: 2.5 mg/kg once on day 9; day 25
Description: Growth Inhibition/Regression of Experimental Tumours in the Mouse
The tumour area is determined as length×width.
When after the end of the treatment all groups of the experiment are terminated at the same time, the tumours can be removed and weighed.
C-6c. Efficacy of the Anti-EGFR Antibody Drug Conjugates in the NCI-H292 Tumour Model on Single Treatment
After the treatment, the tumour growth is monitored up to day 25.

[3] = target: T2, recombinant human TWEAKR protein (TPP-2305) (Homo sapiens, UniProt Q9NP84); assay: Binding affinities by Biacore analysis; settings: monovalent
T2 construct: purchased Fitzgerald Inc 30R-AT080
Description: Determination of Binding Affinities by Biacore Analysis:
Binding affinities of anti-TWEAKR antibodies were examined using surface plasmon resonance analysis on a Biacore T100 instrument (GE Healthcare Biacore, Inc.). The antibodies were immobilized on a CM5 sensor chip using an indirect capture reagent, anti-human IgG(Fc). […] Anti-TWEAKR antibodies were injected at a concentration of 10 μg/ml at […] for 10 sec.
Sensorgrams were generated after in-line reference cell correction, followed by subtraction of the buffer sample. The dissociation constant (KD) was calculated based on the ratio of association (kon) and dissociation (koff) constants, obtained by fitting sensorgrams using a 1:1 first order binding model.

CC(C)[C@H](NC(=O)CCCCCN1C(=O)CC(SC[C@H](N)C(=O)O)C1=O)C(=O)N[C@@H](C)C(=O)N[C@@H](CCCCNC(=O)CCNC(=O)[C@@H](N)CCN(C(=O)CO)[C@@H](c1cc(-c2cc(F)ccc2F)cn1Cc1ccccc1)C(C)(C)C)C(=O)O (stereo partly drawn) [Example 160, N^6-(N-{(2S)-2-Amino-4-[{(1R)-1-[1-benzyl-4-(2,5-difluorophenyl)-1H-pyrrol-2-yl]-2,2-dimethylpropyl}(glycoloyl)amino]butanoyl}-beta-alanyl)-N^2-N-{[6-(3-{[(2R)-2-amino-2-carboxyethyl]sulfanyl}-2,5-dioxopyrrolidin-1-yl)hexanoyl]-L-valyl-L-alanyl}-L-lysine/trifluoroacetic acid (1:1)]
IC50 (NCI-H292): ≥ 500 nM | Papp B→A at 2 h [1]: 0.16 ×10⁻⁶ cm/s | efflux ratio at 2 h [1]: 1 | IC50 [2]: 0.681 nM

CC(C)(C)[C@H](c1cc(-c2cc(F)ccc2F)cn1Cc1ccccc1)N(CC[C@H](N)C(=O)NCCN)C(=O)CO.O=C(O)C(F)(F)F [Example 198]
IC50 (NCI-H292): 19.5 nM | Papp B→A at 2 h [1]: 51.9 ×10⁻⁶ cm/s | efflux ratio at 2 h [1]: 34 | IC50 [2]: 10.7 nM

CC(C)(C)[C@H](c1cc(-c2cc(F)ccc2F)cn1Cc1ccccc1)N(CCCN)C(=O)CSC[C@H](NC(=O)CCOCCOCCOCCOCCNC(=O)CCN1C(=O)CC(SC[C@H](N)C(=O)O)C1=O)C(=O)O.O=C(O)C(F)(F)F.O=C(O)C(F)(F)F (stereo partly drawn) [Example 226, (2R)-22-[(3R/S)-3-{[(2R)-2-Amino-2-carboxyethyl]sulphanyl}-2,5-dioxopyrrolidin-1-yl]-2-[({2-[(3-aminopropyl){(1R)-1-[1-benzyl-4-(2,5-difluorophenyl)-1H-pyrrol-2-yl]-2,2-dimethylpropyl}amino]-2-oxoethyl}sulphanyl)methyl]-4,20-dioxo-7,10,13,16-tetraoxa-3,19-diazadocosan-1-oic acid/trifluoroacetic (1:2)]
IC50 (NCI-H292): 222 nM | Papp B→A at 2 h [1]: 0.3 ×10⁻⁶ cm/s | efflux ratio at 2 h [1]: 0.2 | IC50 [2]: 1.49 nM

CC(C)(C)[C@H](c1cc(-c2cc(F)ccc2F)cn1Cc1ccccc1)N(CCCN)C(=O)CSCCC(N)C(=O)O.O=C(O)C(F)(F)F.O=C(O)C(F)(F)F (stereo partly drawn) [Example 232, S-{2-[(3-Aminopropyl){(1R)-1-[1-benzyl-4-(2,5-difluorophenyl)-1H-pyrrol-2-yl]-2,2-dimethylpropyl}amino]-2-oxoethyl}homocysteine/trifluoroacetic acid (1:2)]
IC50 (NCI-H292): 15.5 nM | Papp B→A at 2 h [1]: 4.9 ×10⁻⁶ cm/s | efflux ratio at 2 h [1]: 14 | IC50 [2]: 2.2 nM

CC(C)(C)[C@H](c1nc(-c2cc(F)ccc2F)cn1Cc1ccccc1)N(CCCN)C(=O)CO [toxophor A, N-(3-aminopropyl)-N-{(1R)-1-[1-benzyl-4-(2,5-difluorophenyl)-1H-imidazol-2-yl]-2,2-dimethylpropyl}-2-hydroxyacetamide]
T/C area (NCI-H292 tumour model): 0.87 | T/C weight (NCI-H292 tumour model): 0.82

CC(C)(C)[C@H](c1nc(-c2cc(F)ccc2F)cn1Cc1ccccc1)N(CC[C@@H](N)CF)C(=O)CO [toxophor B, N-[(3R)-3-amino-4-fluorobutyl]-N-{(1R)-1-[1-benzyl-4-(2,5-difluorophenyl)-1H-imidazol-2-yl]-2,2-dimethylpropyl}-2-hydroxyacetamide]
T/C area (NCI-H292 tumour model): 0.57 | T/C weight (NCI-H292 tumour model): 0.40

B1: P2D3(TPP-2196): comparative anti-TWEAKR antibody; variable domains from the patent literature, constant region added, "resulting in full-length IgGs" (protein)
light: DIVLTQSPASLAVSLGQRATISCRASKSVSTSSYSYMHWYQQKPGQPPKLLIKYTSNLESGVPARFSGSGSGTDFILNIHPVEEEDAATYYCQHSRELPWTFGGGTKLEIKRADAAPTVSIFPPSSEQLTSGGASVVCFLNNFYPKDINVKWKIDGSERQNGVLNSWTDQDSKDSTYSMSSTLTLTKDEYERHNSYTCEATHKTSTSPIVKSFNRNEC
heavy: QVSLKESGPGILQPSQTLSLTCSFSGFSLSTSGMGVSWIRQPSGKGLEWLAHIYWDDDKRYNPSLKSRLTISKDTSRNQVFLKITSVDTADTATYYCARRGPDYYGYYPMDYWGQGTSVTVSAKTTAPSVYPLAPVCGDTTGSSVTLGCLVKGYFPEPVTLTWNSGSLSSGVHTFPAVLQSDLYTLSSSVTVTSSTWPSQSITCNVAHPASSTKVDKKIEPRGPTIKPCPPCKCPAPNLLGGPSVFIFPPKIKDVLMISLSPIVTCVVVDVSEDDPDVQISWFVNNVEVHTAQTQTHREDYNSTLRVVSALPIQHQDWMSGKEFKCKVNNKDLPAPIERTISKPKGSVRAPQVYVLPPPEEEMTKKQVTLTCMVTDFMPEDIYVEWTNNGKTELNYKNTEPVLDSDGSYFMYSKLRVEKKNWVERNSYSCSVVHEGLHNHHTTKSFSRTPG
modifications: Mus Musculus
ka [3]: 1.32e+06 M⁻¹ s⁻¹ | kd [3]: 0.000564 s⁻¹ | Kd ([3]; read-out: KD (n M )): 0.4 nM
